These results are taken from PubChem BioAssay (NCI).

The structures appear in SMILES notation.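 These data come from cells grown in 96-well plates and exposed to compound for 48 hours at five concentrations. GI50: concentration for 50% inhibition of growth. TGI: concentration producing complete growth inhibition.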

Test systems include OVCAR-5 ovarian; IGROV1 ovarian; HS 578T breast; U251 CNS; T-47D breast; SW-620 colon; LOX IMVI melanoma; NCI-H23 lung; TK-10 renal; A549 NSCLC.
Holding throughout (assay): NCI-60 cell line screen, 48 h

For `Cc1nc(Nc2ccccn2)sc1C(=O)/C=C/c1ccc(Cl)cc1`, the GI50 in the assay with OVCAR-5 ovarian is 0.587 µM; in the assay on IGROV1 ovarian, 0.413 µM; with HS 578T breast, 0.398 µM; in the assay on U251 CNS it was 0.37 µM; with T-47D breast, 8.68 µM; in the assay on SW-620 colon it was 0.445 µM. The GI50 with LOX IMVI melanoma is 0.458 µM; in the assay on NCI-H23 lung, 0.567 µM; in the assay on TK-10 renal it was 1.09 µM; with A549 NSCLC it was 0.426 µM. Also, the TGI was above 79.4 µM in the assay with OVCAR-5 ovarian; 30.6 µM in the assay on IGROV1 ovarian; above 100 µM in the assay on HS 578T breast; above 47.3 µM in the assay with U251 CNS; above 100 µM with T-47D breast; above 100 µM in the assay on SW-620 colon. For the same compound, the TGI in the assay with LOX IMVI melanoma was above 40.8 µM; in the assay with NCI-H23 lung, above 100 µM; in the assay with TK-10 renal it was 24.4 µM; in the assay on A549 NSCLC, above 100 µM.

For `O=C([O][Sn]([O]C(=O)c1ccccn1)([c]1ccccc1)[c]1ccccc1)c1ccccn1`, the GI50 with OVCAR-5 ovarian is 16.5 µM; in the assay on IGROV1 ovarian, 1.83 µM; in the assay with HS 578T breast, 2.32 µM; in the assay with U251 CNS it was 1.95 µM; with T-47D breast, 1.56 µM; in the assay with SW-620 colon, 1.13 µM. Besides, the GI50 was 1.4 µM in the assay on LOX IMVI melanoma, 3.08 µM in the assay with NCI-H23 lung, 2.63 µM with TK-10 renal and 17.6 µM with A549 NSCLC. The TGI with OVCAR-5 ovarian came to 30.1 µM; with IGROV1 ovarian it was 4.03 µM; in the assay with HS 578T breast, 8.88 µM; with U251 CNS, 4.62 µM; in the assay with T-47D breast it was 3.33 µM; with SW-620 colon, 2.34 µM. Moreover, the TGI was found to be 2.7 µM with LOX IMVI melanoma, 12.8 µM in the assay on NCI-H23 lung, 5.2 µM with TK-10 renal and 31.5 µM in the assay with A549 NSCLC.

For the compound `CC1=Nc2ccccc2/C1=C\c1c(C)[nH]c2ccccc12`, the TGI in the assay on OVCAR-5 ovarian is 50.9 µM; with IGROV1 ovarian, 25.4 µM; with HS 578T breast, 47.2 µM; with U251 CNS, 33.3 µM; in the assay on T-47D breast it was 29.4 µM; in the assay on SW-620 colon it was 28.5 µM. The TGI was 62.4 µM in the assay with LOX IMVI melanoma, 38.6 µM in the assay with NCI-H23 lung, 32.2 µM in the assay on TK-10 renal and 73.6 µM in the assay with A549 NSCLC.

For the compound `O=C1CC(c2[nH]nc3ccccc23)C(=O)N1c1ccccc1` (stereo not drawn), the TGI in the assay with OVCAR-5 ovarian, with IGROV1 ovarian, in the assay with HS 578T breast, in the assay on U251 CNS, in the assay with T-47D breast and with SW-620 colon was above 100 µM throughout. The TGI in the assay on LOX IMVI melanoma, in the assay with NCI-H23 lung, with TK-10 renal and with A549 NSCLC was above 100 µM in each case.

For `CC(C)(C)OC(=O)NCCCn1c2c(c3ccccc3c1=O)C(=O)c1ccccc1-2`, the GI50 in the assay with IGROV1 ovarian is above 100 µM; in the assay on HS 578T breast, 15.8 µM; in the assay on U251 CNS it was 11.5 µM; with T-47D breast it was 29.6 µM; in the assay on SW-620 colon, above 100 µM; with LOX IMVI melanoma, 6.98 µM. The GI50 in the assay on NCI-H23 lung was 13.4 µM; in the assay with TK-10 renal, 22.3 µM; in the assay with A549 NSCLC, 41.9 µM. Besides, the TGI in the assay with IGROV1 ovarian is above 100 µM; in the assay on HS 578T breast it was 71.6 µM; in the assay with U251 CNS it was 28.3 µM; in the assay on T-47D breast, above 100 µM; with SW-620 colon it was above 100 µM; in the assay with LOX IMVI melanoma, 43 µM. The figures for the TGI in the assay on NCI-H23 lung, in the assay on TK-10 renal and in the assay with A549 NSCLC were 28.8 µM, 63 µM and above 100 µM, respectively.

Regarding `Cc1cc(N=C2C=C(Br)C(=O)C(Br)=C2)cc(CN(CC(=O)O)CC(=O)O)c1O`, the TGI in the assay on OVCAR-5 ovarian, in the assay with IGROV1 ovarian, with HS 578T breast, with U251 CNS, with T-47D breast and with SW-620 colon was above 100 µM in each case. Moreover, the TGI in the assay on NCI-H23 lung and in the assay on A549 NSCLC was above 100 µM each time.

With `Cc1ccc(S(=O)(=O)c2nc(-c3ccccc3)oc2S(C)=O)cc1` (stereo not drawn), the GI50 was 1.85 µM in the assay on OVCAR-5 ovarian; 5.27 µM with HS 578T breast; 1.7 µM with U251 CNS; 1.23 µM in the assay on T-47D breast; 1.47 µM in the assay on SW-620 colon; 1.4 µM in the assay with LOX IMVI melanoma. Further, the GI50 is 1.91 µM in the assay with NCI-H23 lung, 1.45 µM in the assay with TK-10 renal and 5.23 µM in the assay on A549 NSCLC. The TGI with OVCAR-5 ovarian came out at 3.47 µM; in the assay with HS 578T breast, 40 µM; with U251 CNS, 3.17 µM; in the assay on T-47D breast, 3.17 µM; in the assay on SW-620 colon, 3.48 µM; with LOX IMVI melanoma, 2.81 µM. For the same compound, the TGI in the assay with NCI-H23 lung was determined as 3.97 µM; with TK-10 renal, 2.79 µM; in the assay with A549 NSCLC it was 18.5 µM.

As for `O=c1[nH]c2ccccc2n1CCCN1CCC(n2c(=O)[nH]c3cc(Cl)ccc32)CC1`, the TGI in the assay with OVCAR-5 ovarian was 43.1 µM; in the assay with IGROV1 ovarian it was 41.3 µM; in the assay with HS 578T breast, 49.7 µM; in the assay with T-47D breast, 37.3 µM; in the assay on SW-620 colon, 39.2 µM; in the assay on NCI-H23 lung it was 31.2 µM. Besides, the TGI in the assay on TK-10 renal came to 39.4 µM; with A549 NSCLC, 63.8 µM.

With `COc1cc2c(cc1OC)C(=O)/C(=C/c1cc(-c3ccc4c(c3)OCO4)n[nH]1)C2`, the GI50 is 1.56 µM in the assay on OVCAR-5 ovarian; 1.89 µM in the assay on IGROV1 ovarian; 2.61 µM with HS 578T breast; 1.09 µM with U251 CNS; 1.31 µM in the assay on T-47D breast; 1.35 µM in the assay on SW-620 colon. Further, the GI50 was 1.87 µM with NCI-H23 lung, 1.89 µM with TK-10 renal and 1.96 µM in the assay on A549 NSCLC. Moreover, the TGI in the assay with OVCAR-5 ovarian is 3 µM; in the assay on IGROV1 ovarian it was 4.58 µM; with HS 578T breast, 8.08 µM; with U251 CNS it was 2.31 µM; with T-47D breast, 2.72 µM; in the assay with SW-620 colon, 3.47 µM. For the same compound, the TGI with NCI-H23 lung was determined as 3.91 µM; in the assay with TK-10 renal, 3.36 µM; with A549 NSCLC it was 5.45 µM.

With `C1CC[N-]CC1.CC(=N\O)/C(C)=N/O.CC(=N\O)/C(C)=N/O.OC1[CH-]CCCC1.[Co+2]`, the GI50 in the assay on OVCAR-5 ovarian is above 100 µM; in the assay with IGROV1 ovarian it was 44.9 µM; in the assay on HS 578T breast, 22.8 µM; in the assay on U251 CNS, 31 µM; in the assay on T-47D breast, 16.5 µM; in the assay on SW-620 colon it was 31.6 µM. Moreover, the GI50 in the assay on LOX IMVI melanoma was 36.4 µM; in the assay with TK-10 renal it was 39.8 µM; in the assay with A549 NSCLC, 58.5 µM. In addition, the TGI with OVCAR-5 ovarian was above 100 µM; in the assay on IGROV1 ovarian, above 100 µM; in the assay with HS 578T breast, 63 µM; in the assay on U251 CNS, above 100 µM; in the assay with T-47D breast it was 69.5 µM; in the assay with SW-620 colon, above 100 µM. Also, the TGI in the assay on LOX IMVI melanoma, in the assay on TK-10 renal and in the assay with A549 NSCLC was above 100 µM throughout.
